# Earlier results, collected in patent US20050101565A1, “Pharmaceutical compositions and methods for treating, preventing, and managing cholesterol, dyslipidemia, and related disorders” (Esperion Therapeutics, Inc., priority 2002, published 2005).
# Legend:
# [1] = patients on metformin therapy
# [2] = many patients, metformin therapy
smiles,measurement,setting,value
CN(C)C(=N)N=C(N)N [metformin],incidence of lactic acidosis,[1],"3 cases per 100,000 patient/year of therapy"
same,weight reduction,[2],5-10%
